# Source: ChEMBL document CHEMBL1159266, “Antineoplastic agents, 325. Isolation and structure of the human cancer cell growth inhibitory cyclic octapeptides phakellistatin 10 and 11 from Phakellia sp” (1995)
# Where a SMILES comes first, the peptide text is derived from it.
# What was measured:
# Format in all cases: functional
# L1210 = test: Cytotoxicity against mouse L1210 cells; settings: read-out: ED50 (the source's name)
# [1] = Growth inhibition of human NCI60 cells
# P388 = test: Cytotoxicity against mouse P388 cells; settings: read-out: ED50 (the source's name)
SMILES,EC50 (L1210) [µg/mL],GI50 [1] [nM],EC50 (P388) [µg/mL]
CC(C)C[C@@H]1NC(=O)[C@@H]2CCCN2C(=O)[C@H](C(C)C)NC(=O)[C@H](Cc2c[nH]c3ccccc23)NC(=O)[C@@H]2CCCN2C(=O)[C@H](CC(C)C)NC(=O)[C@@H]2CCCN2C(=O)[C@H]([C@@H](C)O)NC1=O [HYMENAMIDE H] (cyclo(LPWVPLTP)),6.3,–,–
CC(C)[C@@H]1NC(=O)[C@H](CCCCN)NC(=O)[C@H](Cc2c[nH]c3ccccc23)NC(=O)[C@H](Cc2ccccc2)NC(=O)[C@H](CC(=O)O)NC(=O)[C@H](Cc2ccc(O)cc2)NC(=O)[C@@H]2CCCN2C(=O)[C@H](Cc2ccc(O)cc2)NC1=O [HYMENAMIDE J] (cyclo(DFWKVYPY)),2.6,–,–
CC[C@H](C)[C@@H]1NC(=O)[C@H](Cc2ccccc2)NC(=O)[C@@H]2CCCN2C(=O)[C@H](Cc2ccccc2)NC(=O)[C@@H]2CCCN2C(=O)[C@H](CCC(N)=O)NC(=O)[C@@H]2CCCN2C(=O)[C@H](Cc2ccccc2)NC1=O [PHAKELLI STATIN 11] (cyclo(FIFPQPFP)),–,132,0.2
CC[C@H](C)[C@@H]1NC(=O)[C@@H]2CCCN2C(=O)[C@H]([C@@H](C)O)NC(=O)[C@H](CC(C)C)NC(=O)[C@@H]2CCCN2C(=O)[C@H](C(C)C)NC(=O)[C@H](Cc2ccc(O)cc2)NC(=O)[C@@H]2CCCN2C1=O [PHAKELLISTATIN 10] (cyclo(IPYVPLTP)),–,790,2.1
